Patent publication US20140088056A1, “CARDIAC GLYCOSIDES ARE POTENT INHIBITORS OF INTERFERON-BETA GENE EXPRESSION” (priority 2010, published 2014)
Like-named read-outs stand apart in the source and are kept apart here. Marks after values point to notes of the source that are not given here.

How the values were obtained:
IFNβ promoter = assay: cells; type: cell-based, human; conditions: for IC50: Homo sapiens, HEK-293T, read-out: IC50 for inhibition of virus induced IFNβ expression; for effect of ion-channel ligands on IFNβ reporter: increasing concentrations
Procedure: 293T cells were transfected with the IFNβ promoter driving a firefly luciferase reporter together a reference renilla luciferase reporter plasmid. […] Firefly luciferase activities were measured after another 24 hrs and normalized to that of renilla activities.
293T cells were transfected with an IFNβ promoter driving luciferase reporter, 24 hrs later, increasing amounts (10 nM to 10 uM) of Ouabain (FIG. 8A) or digoxin (FIG. 8B) were added to cells before the Sendai virus infection. Luciferase activities were measured one day later.
Approximately 40,000 293T cells were seeded in a 96 well plate, and co-transfected with IFNβ-110 firefly luciferase reporter and renilla luciferase plasmids (Fitzgerald, K. A. et al. IKKepsilon and TBK1 are essential components of the IRF3 signaling pathway. Nat Immunol 4, 491-6 (2003)). After 24 hrs, cells were treated with various chemicals at the indicated concentrations, and sendai virus infection was initiated one hour later. After another 24 hrs, cells were lysed and subjected to Dual-Glo luciferase assay analysis (Promega) with an Analyst AD plate reader.
Human 293T cells were transfected with the IFNβ promoter driving the expression of luciferase construct. The cells were treated with a library of chemical compounds, and sendai virus (SeV) infection initiated one hour later. Luciferase activity was measured after another 24 hrs of culture. Signals were normalized to the samples not treated with chemicals.

endogenous IFNβ gene = assay: RT-PCR of virus induced endogenous IFNβ gene in 293T cells treated with ion-channel modulators; type: cell-based, human; conditions: 10 uM, 6 hrs
Procedure: 293T cells were treated with 10 uM of nimodipine, diazoxide or phenamil 30 min before Sendai virus infection, 6 hrs later total RNA were extracted and the expression of various genes were analyzed by RT-PCR.
Since the major function of the pump is to maintain the cellular ion homeostasis, the inventors reasoned that it might be possible to inhibit or stimulate IFNβ induction by varying the intracellular ion concentration. The inventors thus performed luciferase reporter assays with an ion-channel ligand library, which contains various modulators for sodium, potassium, calcium and chloride channels. The experiments were conducted similarly to the initial screening assays: 293T cells were transfected with reporter plasmid, then chemical ligands were added before starting virus infection, and luciferase activity measured after another 24 hrs.

293T cells [1] = assay: Western blot analysis of apoptosis and autophagy; type: cell-based, human; conditions: 8 hours, bufalin 1 nM to 10 μM, staurosporine 4 μM; for induction of LC3B-II (marker of autophagy): BFA 100 nM
Procedure: (§1) The cells were also exposed to 0.1% Triton X-100 for 1 hr before the viability assay as a control (FIG. 16E). Data represent mean values±s.d. (n=3). […] Cells were harvested and washed, then stained with Allophycocyanin (APC) conjugated Annexin V and 7-AAD for 15 minutes and subjected to flow cytometry analysis. The number in each graph is the percentile of Annexin V or 7-AAD positive populations. […] Total protein lysates were prepared and separated on SDS-PAGE for Western blot analysis of PARP1, cleaved PARP1, cleaved Caspase3, LC3B, ATP1a1, and beta-actin expression.
Apoptosis and autophagy were also analyzed by Western blots. […] Total protein lysates were prepared and separated on SDS-PAGE for Western blot analysis of PARP1, cleaved PARP1, cleaved Caspase3, LC3B, ATP1a1, and beta-actin expression.

293T cells [2] = assay: Flow cytometry analysis of apoptosis (Annexin V / 7-AAD); type: cell-based, human; conditions: bufalin 1 μM 8 hours; staurosporine 4 μM 4 hours
Procedure: as §1
Treated cells and untreated control cells were harvested and washed with PBS, and stained with APC conjugated Annexin V and 7-AAD (both from BD Biosciences) in Annexin V binding buffer (10 mM HEPES, pH 7.4, 140 mM NaCl, 2.5 mM CaCl2) for 15 minutes at room temperature, and then subjected to flow cytometry analysis on a FACSCalibur (BD Biosciences).
Cells were harvested and washed, then stained with Allophycocyanin (APC) conjugated Annexin V and 7-AAD for 15 minutes and subjected to flow cytometry analysis. […] 11 for sturosporine.

TNF signaling = conditions: Yang et al.; blocks TRADD recruitment, inhibits IKBα degradation; cited from earlier work

C[C@@H]1O[C@@H](O[C@H]2C[C@@H](O)[C@]3(CO)[C@H]4[C@H](O)C[C@]5(C)[C@@H](C6=CC(=O)OC6)CC[C@]5(O)[C@@H]4CC[C@]3(O)C2)[C@H](O)[C@H](O)[C@H]1O [ouabain]
IC50 (IFNβ promoter; 293T cells, Sendai virus): 64.8 nM

Cn1c2ccccc2c2c3c(c4c5ccccc5n(CCC#N)c4c21)CNC3=O [Go 6976]
Inhibition % of virus induced IFNβ expression (IFNβ promoter; tested at 3 μM, chemical library screen): 55.9* %

O=C(Nc1cccc(Nc2cc(Nc3cccc(C(F)(F)F)c3)ncn2)c1)C1CC1 [EGF receptor inhibitor]
Inhibition % @ 10 μM of virus induced IFNβ expression (IFNβ promoter; chemical library screen): 38.5%

CC1=NS(=O)(=O)c2cc(Cl)ccc2N1 [diazoxide, Diazoxide]
effect of ion-channel ligands on IFNβ reporter (IFNβ promoter): more inhibition | virus induced expression of the endogenous IFNβ gene (endogenous IFNβ gene): similarly inhibited

O=C(Nc1ccc([N+](=O)[O-])cc1O)Nc1ccccc1Br [SB 225002]
Inhibition % @ 10 μM of virus induced IFNβ expression (IFNβ promoter; chemical library screen): 50.8%

CO/C1=C\C(C)=C\[C@@H](C)[C@@H](O)[C@@H](C)C/C(C)=C/C=C/[C@H](OC)[C@@H]([C@@H](C)[C@@H](O)[C@H](C)[C@@]2(O)C[C@@H](O)[C@H](C)[C@@H](C(C)C)O2)OC1=O [BFA, bafilomycin A1]
induction of LC3B-II (marker of autophagy) (293T cells [1]): induced

C[C@H]1O[C@@H](O[C@H]2[C@@H](O)C[C@H](O[C@H]3[C@@H](O)C[C@H](O[C@H]4CC[C@@]5(C)[C@H](CC[C@@H]6[C@@H]5C[C@@H](O)[C@]5(C)[C@@H](C7=CC(=O)OC7)CC[C@]65O)C4)O[C@@H]3C)O[C@@H]2C)C[C@H](O)[C@@H]1O [digoxin]
IC50 (IFNβ promoter): 56.6 nM

CN[C@@H]1C[C@H]2O[C@@](C)([C@@H]1OC)n1c3ccccc3c3c4c(c5c6ccccc6n2c5c31)C(=O)NC4 [staurosporine]
Percentile of Annexin V or 7-AAD positive populations (293T cells [2]): 17.11 | cleavage products of PARP1 and Caspase3 (indication of apoptosis) (293T cells [1]): induced | induction of LC3B-II (marker of autophagy) (293T cells [1]): induced

CC#CC(=O)Nc1cc2c(Nc3ccc(F)c(Cl)c3)ncnc2cn1 [EGFR/ErbB-2/ErbB-4 Inhibitor]
Inhibition % @ 10 μM of virus induced IFNβ expression (IFNβ promoter; chemical library screen): 20.6%

NC(=Nc1ccccc1)NC(=O)c1nc(Cl)c(N)nc1N [phenamil]
effect of ion-channel ligands on IFNβ reporter (IFNβ promoter): consistently enhanced | virus induced expression of the endogenous IFNβ gene (endogenous IFNβ gene): less potent

C[C@H]1O[C@@H](O[C@H]2[C@@H](O)C[C@H](O[C@H]3[C@@H](O)C[C@H](O[C@H]4CC[C@@]5(C)[C@H](CC[C@@H]6[C@@H]5CC[C@]5(C)[C@@H](C7=CC(=O)OC7)CC[C@]65O)C4)O[C@@H]3C)O[C@@H]2C)C[C@H](O)[C@@H]1O [digitoxin]
TNF signaling (TNF signaling): inhibit
